In one assay the target is Histamine H3 receptor (Homo sapiens, UniProt Q9Y5N1). Put plainly: Displacement of [3H]Nalpha-methylhistamine from recombinant human histamine H3 receptor stably expressed in HEK293 cells assessed as inhibition constant by competitive binding based radioligand depletion assay. Type of assay: cell-based. On the technique in general: Displacement assays read how much labelled ligand stays bound in the presence of the test substance.

Assay [1] deals with Sigma non-opioid intracellular receptor 1 (Cavia porcellus, UniProt Q60492). Put plainly: Displacement of [3H](+)-pentazocine from sigma 1 receptor in guinea pig brain membrane assessed as inhibition constant by liquid scintillation counter analysis. Format: cell membranes.
Chain of Sigma non-opioid intracellular receptor 1 (Q60492 whole entry): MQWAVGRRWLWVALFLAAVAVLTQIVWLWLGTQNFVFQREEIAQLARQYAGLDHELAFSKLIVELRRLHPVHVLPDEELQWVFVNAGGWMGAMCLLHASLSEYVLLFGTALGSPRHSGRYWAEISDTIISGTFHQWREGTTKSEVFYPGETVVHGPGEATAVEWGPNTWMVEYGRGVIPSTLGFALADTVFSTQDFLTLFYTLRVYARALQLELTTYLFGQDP

By Ki is commonly meant the dissociation constant of the complex between target and ligand, obtained from inhibition or displacement.

Chain of Histamine H3 receptor (Q9Y5N1 whole entry): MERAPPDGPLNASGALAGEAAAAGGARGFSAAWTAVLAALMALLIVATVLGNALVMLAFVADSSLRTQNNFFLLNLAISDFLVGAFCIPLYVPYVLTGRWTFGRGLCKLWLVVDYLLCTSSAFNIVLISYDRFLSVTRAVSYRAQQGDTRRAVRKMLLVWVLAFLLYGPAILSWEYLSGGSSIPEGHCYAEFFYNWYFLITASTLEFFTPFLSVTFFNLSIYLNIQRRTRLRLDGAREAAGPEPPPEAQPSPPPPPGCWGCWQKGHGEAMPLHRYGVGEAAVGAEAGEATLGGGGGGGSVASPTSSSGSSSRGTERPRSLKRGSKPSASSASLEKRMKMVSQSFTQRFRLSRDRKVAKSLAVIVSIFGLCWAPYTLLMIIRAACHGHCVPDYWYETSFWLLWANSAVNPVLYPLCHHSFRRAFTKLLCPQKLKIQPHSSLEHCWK

Take `c1ccc(Cc2ccc(OCCCN3CCCCC3)cc2)cc1`: at Histamine H3 receptor, the Ki amounted to 27.5 nM. The same measure, in the same setting: with `N#Cc1ccc(-c2ccc(OCCCN3CCCCC3)cc2)cc1` the figure was 6.2 nM. Take `c1cc(OCCCN2CCCCC2)ccc1CN1CCCCC1` [JNJ-5207852]: the Ki in assay [1] was found to be 1170 nM.

These data come from ChEMBL document CHEMBL5346953, “Dual Piperidine-Based Histamine H3 and Sigma-1 Receptor Ligands in the Treatment of Nociceptive and Neuropathic Pain” (J Med Chem, 2023).
